US10253015B2, “Pyridinyl quinolinone derivatives as mutant-isocitrate dehydrogenase inhibitors” (FORMA TM2, Inc., priority 2014, dated 2019)

Target: IDH1-R132H recombinant protein (Homo sapiens (Human), UniProt O75874, R132H)
Experiment: IDH1-R132H enzymatic assay
Assay type: biochemical
Settings: inhibition of NADPH consumption, diaphorase/resazurin readout; read-out: Enzyme IDH1 R132H Range IC50
Protocol: Assays were performed in a 384-well black plate. […] After the plate was centrifuged briefly, an aliquot of 10 μL of 2 mM α-ketoglutarate and 20 μM NADPH solution prepared in assay buffer was then added to each well and the reaction was maintained at 25° C. for 45 minutes. An aliquot of 10 μL of diaphorase solution (0.15 U/mL diaphorase and 30 μM Resazurin in assay buffer) was added to each well. […] The IC50 of a given compound was calculated by fitting the dose response curve of inhibition of NADPH consumption at a given concentration with the four parameter logistic equation.

Sequence of IDH1-R132H recombinant protein (O75874 whole entry R132H): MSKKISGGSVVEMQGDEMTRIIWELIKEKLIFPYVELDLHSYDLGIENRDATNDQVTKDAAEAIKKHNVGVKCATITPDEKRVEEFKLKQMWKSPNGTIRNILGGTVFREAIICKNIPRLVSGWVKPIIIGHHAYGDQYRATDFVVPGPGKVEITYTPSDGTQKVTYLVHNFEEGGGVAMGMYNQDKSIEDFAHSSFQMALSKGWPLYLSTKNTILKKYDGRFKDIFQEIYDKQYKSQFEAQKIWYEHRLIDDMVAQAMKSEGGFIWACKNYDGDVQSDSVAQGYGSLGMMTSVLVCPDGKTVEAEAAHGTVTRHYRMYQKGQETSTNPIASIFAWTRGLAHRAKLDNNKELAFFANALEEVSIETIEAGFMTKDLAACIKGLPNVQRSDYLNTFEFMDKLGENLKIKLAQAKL

| SMILES | IC50 |
| --- | --- |
| Cc1c(N2CCOC2=O)ccnc1N[C@@H](C)c1cc2cc(Cl)ccc2[nH]c1=O [Compound I-15, 6-chloro-3-[(1S)-1-{[3-methyl-4-(2-oxo-1,3-oxazolidin-3-yl)pyridin-2-yl]amino}ethyl]-1,2-dihydroquinolin-2-one] | 0.1 to 1 µM |
| C[C@H](Nc1cc(F)cc(N2CCOC2=O)n1)c1cc2cc(Cl)ccc2[nH]c1=O [Compound I-16, 6-chloro-3-[(1S)-1-{[4-fluoro-6-(2-oxo-1,3-oxazolidin-3-yl)pyridin-2-yl]amino}ethyl]-1,2-dihydroquinolin-2-one] | 1 to 10 µM |
| CC(C)[C@H]1COC(=O)N1c1cccc(N[C@H](C)c2cc3cc(Cl)ccc3[nH]c2=O)n1 [Compound I-20, 6-chloro-3-[(1R)-1-({6-[(4S)-2-oxo-4-(propan-2-yl)-1,3-oxazolidin-3-yl]pyridin-2-yl}amino)ethyl]-1,2-dihydroquinolin-2-one] | > 10 µM |
| Cc1cc(NCCO)cc(N[C@@H](C)c2cc3cc(Cl)ccc3[nH]c2=O)n1 [Compound I-33, 6-chloro-3-[(1S)-1-({4-[(2-hydroxyethyl)amino]-6-methylpyridin-2-yl}amino)ethyl]-1,2-dihydroquinolin-2-one] | 1 to 10 µM |
| C[C@H](Nc1cccc(N2CCCS2(=O)=O)n1)c1cc2cc(Cl)ccc2[nH]c1=O [Compound I-35, 2-(6-{[(1S)-1-(6-chloro-2-oxo-1,2-dihydroquinolin-3-yl)ethyl]amino}pyridin-2-yl)-1λ^6,2-thiazolidine-1,1-dione] | 1 to 10 µM |
| C[C@H](Nc1nccc(-n2ccnc2)c1F)c1cc2cc(Cl)ccc2[nH]c1=O [Compound I-37, 6-chloro-3-[(1S)-1-{[3-fluoro-4-(1H-imidazol-1-yl)pyridin-2-yl]amino}ethyl]-1,2-dihydroquinolin-2-one] | 1 to 10 µM |
| C[C@H](Nc1nccc(-c2cccn2C)c1F)c1cc2cc(Cl)ccc2[nH]c1=O [Compound I-42, 6-chloro-3-[(1S)-1-{[3-fluoro-4-(1-methyl-1H-pyrrol-2-yl)pyridin-2-yl]amino}ethyl]-1,2-dihydroquinolin-2-one] | 1 to 10 µM |
| Cc1noc(C)c1-c1ccnc(N[C@@H](C)c2cc3cc(Cl)ccc3[nH]c2=O)c1F [Compound I-54, 6-chloro-3-[(1S)-1-{[4-(dimethyl-1,2-oxazol-4-yl)-3-fluoropyridin-2-yl]amino}ethyl]-1,2-dihydroquinolin-2-one] | > 10 µM |
| CC(C)n1nccc1-c1ccnc(N[C@@H](C)c2cc3cc(Cl)ccc3[nH]c2=O)c1F [Compound I-57, 6-chloro-3-[(1S)-1-({3-fluoro-4-[1-(propan-2-yl)-1H-pyrazol-5-yl]pyridin-2-yl}amino)ethyl]-1,2-dihydroquinolin-2-one] | > 10 µM |
| COc1nc(C#N)ccc1NCc1cc2cc(Cl)ccc2[nH]c1=O [Compound I-61, 5-{[(6-chloro-2-oxo-1,2-dihydroquinolin-3-yl)methyl]amino}-6-methoxypyridine-2-carbonitrile] | < 0.1 µM |
| N#Cc1ccc(NCc2cc3cc(Cl)ccc3[nH]c2=O)nc1N1CCOC1=O [Compound I-63, 6-{[(6-chloro-2-oxo-1,2-dihydroquinolin-3-yl)methyl]amino}-2-(2-oxo-1,3-oxazolidin-3-yl)pyridine-3-carbonitrile] | > 10 µM |
| CC(C)C1CCCN1c1nc(NCc2cc3cc(Cl)ccc3[nH]c2=O)ccc1C#N (stereo not drawn) [Compound I-64, 6-{[(6-chloro-2-oxo-1,2-dihydroquinolin-3-yl)methyl]amino}-2-[2-(propan-2-yl)pyrrolidin-1-yl]pyridine-3-carbonitrile] | > 10 µM |
| CC(C)CN(C)c1nc(NCc2cc3cc(Cl)ccc3[nH]c2=O)ccc1C#N [Compound I-65, 6-{[(6-chloro-2-oxo-1,2-dihydroquinolin-3-yl)methyl]amino}-2-[methyl(2-methylpropyl)amino]pyridine-3-carbonitrile] | > 10 µM |
| COc1nc(NCc2cc3cc(Cl)ccc3[nH]c2=O)ccc1C#N [Compound I-66, 6-{[(6-chloro-2-oxo-1,2-dihydroquinolin-3-yl)methyl]amino}-2-methoxypyridine-3-carbonitrile] | > 10 µM |
| Cc1cc(C)nc(NCc2cc3cc(Cl)ccc3[nH]c2=O)c1 [Compound I-69, 6-chloro-3-{[(4,6-dimethylpyridin-2-yl)amino]methyl}-1,2-dihydroquinolin-2-one] | 1 to 10 µM |
| COc1ccnc(NCc2cc3cc(Cl)ccc3[nH]c2=O)c1 [Compound I-70, 6-chloro-3-{[(4-methoxypyridin-2-yl)amino]methyl}-1,2-dihydroquinolin-2-one] | 1 to 10 µM |
| Cc1ccnc(NCc2cc3cc(Cl)ccc3[nH]c2=O)c1 [Compound I-74, 6-chloro-3-{[(4-methylpyridin-2-yl)amino]methyl}-1,2-dihydroquinolin-2-one] | 1 to 10 µM |
| O=c1[nH]c2ccc(Cl)cc2cc1CNc1ccc(Cl)cn1 [Compound I-75, 6-chloro-3-{[(5-chloropyridin-2-yl)amino]methyl}-1,2-dihydroquinolin-2-one] | 1 to 10 µM |
| O=c1[nH]c2ccc(Cl)cc2cc1CNc1cc(C(F)(F)F)ccn1 [Compound I-79, 6-chloro-3-({[4-(trifluoromethyl)pyridin-2-yl]amino}methyl)-1,2-dihydroquinolin-2-one] | > 10 µM |

More lines, now with the values ahead:

| IC50 | SMILES |
| --- | --- |
| 0.1 to 1 µM | Cc1cc(N2CCOC2=O)cc(N[C@@H](C)c2cc3cc(Cl)ccc3[nH]c2=O)n1 [Compound I-12, 6-chloro-3-[(1S)-1-{[6-methyl-4-(2-oxo-1,3-oxazolidin-3-yl)pyridin-2-yl]amino}ethyl]-1,2-dihydroquinolin-2-one] |
| 0.1 to 1 µM | Cc1nc(NC2(c3cc4cc(Cl)ccc4[nH]c3=O)CC2)ccc1C#N [Compound I-31, 6-{[1-(6-chloro-2-oxo-1,2-dihydroquinolin-3-yl)cyclopropyl]amino}-2-methylpyridine-3-carbonitrile] |
| 0.1 to 1 µM | Cc1nc(NC(C)(C)c2cc3cc(Cl)ccc3[nH]c2=O)ccc1C#N [Compound I-32, 6-{[2-(6-chloro-2-oxo-1,2-dihydroquinolin-3-yl)propan-2-yl]amino}-2-methylpyridine-3-carbonitrile] |
| 1 to 10 µM | Cc1cn(-c2ccnc(N[C@@H](C)c3cc4cc(Cl)ccc4[nH]c3=O)c2F)cn1 [Compound I-38, 6-chloro-3-[(1S)-1-{[3-fluoro-4-(4-methyl-1H-imidazol-1-yl)pyridin-2-yl]amino}ethyl]-1,2-dihydroquinolin-2-one] |
| 1 to 10 µM | Cc1c(-c2ccnc(N[C@@H](C)c3cc4cc(Cl)ccc4[nH]c3=O)c2F)cnn1C [Compound I-45, 6-chloro-3-[(1S)-1-{[4-(1,5-dimethyl-1H-pyrazol-4-yl)-3-fluoropyridin-2-yl]amino}ethyl]-1,2-dihydroquinolin-2-one] |
| 1 to 10 µM | Cc1cscc1-c1ccnc(N[C@@H](C)c2cc3cc(Cl)ccc3[nH]c2=O)c1F [Compound I-46, 6-chloro-3-[(1S)-1-{[3-fluoro-4-(4-methylthiophen-3-yl)pyridin-2-yl]amino}ethyl]-1,2-dihydroquinolin-2-one] |
| 1 to 10 µM | Cc1n[nH]c(C)c1-c1ccnc(N[C@@H](C)c2cc3cc(Cl)ccc3[nH]c2=O)c1F [Compound I-51, 6-chloro-3-[(1S)-1-{[4-(3,5-dimethyl-1H-pyrazol-4-yl)-3-fluoropyridin-2-yl]amino}ethyl]-1,2-dihydroquinolin-2-one] |
| > 10 µM | C[C@H](Nc1nccc(-c2ccnn2C2CCCCO2)c1F)c1cc2cc(Cl)ccc2[nH]c1=O (stereo partly drawn) [Compound I-55, 6-chloro-3-[(1S)-1-({3-fluoro-4-[1-(oxan-2-yl)-1H-pyrazol-5-yl]pyridin-2-yl}amino)ethyl]-1,2-dihydroquinolin-2-one] |
| 1 to 10 µM | N#Cc1ccc(NCc2cc3cc(Cl)ccc3[nH]c2=O)nc1C(F)(F)F [Compound I-60, 6-{[(6-chloro-2-oxo-1,2-dihydroquinolin-3-yl)methyl]amino}-2-(trifluoromethyl)pyridine-3-carbonitrile] |
| > 10 µM | N#Cc1ccc(NCc2cc3cc(Cl)ccc3[nH]c2=O)nc1Cl [Compound I-62, 2-chloro-6-{[(6-chloro-2-oxo-1,2-dihydroquinolin-3-yl)methyl]amino}pyridine-3-carbonitrile] |
| 0.1 to 1 µM | CC(C)c1cccnc1NCc1cc2cc(Cl)ccc2[nH]c1=O [Compound I-68, 6-chloro-3-({[3-(propan-2-yl)pyridin-2-yl]amino}methyl)-1,2-dihydroquinolin-2-one] |
| 1 to 10 µM | O=c1[nH]c2ccc(Cl)cc2cc1CNc1ccc(F)cn1 [Compound I-71, 6-chloro-3-{[(5-fluoropyridin-2-yl)amino]methyl}-1,2-dihydroquinolin-2-one] |
| 1 to 10 µM | N#Cc1ccnc(NCc2cc3cc(Cl)ccc3[nH]c2=O)c1 [Compound I-72, 2-{[(6-chloro-2-oxo-1,2-dihydroquinolin-3-yl)methyl]amino}pyridine-4-carbonitrile] |
| 1 to 10 µM | COC(=O)c1cccc(NCc2cc3cc(Cl)ccc3[nH]c2=O)n1 [Compound I-73, methyl 6-{[(6-chloro-2-oxo-1,2-dihydroquinolin-3-yl)methyl]amino}pyridine-2-carboxylate] |
| 1 to 10 µM | O=c1[nH]c2ccc(Cl)cc2cc1CNc1cccnc1O [Compound I-76, 6-chloro-3-{[(2-hydroxypyridin-3-yl)amino]methyl}-1,2-dihydroquinolin-2-one] |
| > 10 µM | O=c1[nH]c2ccc(Cl)cc2cc1CNc1ccc(C(F)(F)F)cn1 [Compound I-77, 6-chloro-3-({[5-(trifluoromethyl)pyridin-2-yl]amino}methyl)-1,2-dihydroquinolin-2-one] |
| > 10 µM | N#Cc1ccc(NCc2cc3cc(Cl)ccc3[nH]c2=O)cn1 [Compound I-78, 5-{[(6-chloro-2-oxo-1,2-dihydroquinolin-3-yl)methyl]amino}pyridine-2-carbonitrile] |
